The assay concerns the target TRPM7 (Mus musculus, UniProt Q923J1). Description: Fura-2 Ca2+ imaging in LS8 cells. The format is cell-based.

Structures are written as SMILES.

By EC50 is commonly meant the concentration at which the effect is half-maximal. Low values mean an effect from little substance, high ones a need for much substance.

Chain of TRPM7 (Q923J1 whole entry): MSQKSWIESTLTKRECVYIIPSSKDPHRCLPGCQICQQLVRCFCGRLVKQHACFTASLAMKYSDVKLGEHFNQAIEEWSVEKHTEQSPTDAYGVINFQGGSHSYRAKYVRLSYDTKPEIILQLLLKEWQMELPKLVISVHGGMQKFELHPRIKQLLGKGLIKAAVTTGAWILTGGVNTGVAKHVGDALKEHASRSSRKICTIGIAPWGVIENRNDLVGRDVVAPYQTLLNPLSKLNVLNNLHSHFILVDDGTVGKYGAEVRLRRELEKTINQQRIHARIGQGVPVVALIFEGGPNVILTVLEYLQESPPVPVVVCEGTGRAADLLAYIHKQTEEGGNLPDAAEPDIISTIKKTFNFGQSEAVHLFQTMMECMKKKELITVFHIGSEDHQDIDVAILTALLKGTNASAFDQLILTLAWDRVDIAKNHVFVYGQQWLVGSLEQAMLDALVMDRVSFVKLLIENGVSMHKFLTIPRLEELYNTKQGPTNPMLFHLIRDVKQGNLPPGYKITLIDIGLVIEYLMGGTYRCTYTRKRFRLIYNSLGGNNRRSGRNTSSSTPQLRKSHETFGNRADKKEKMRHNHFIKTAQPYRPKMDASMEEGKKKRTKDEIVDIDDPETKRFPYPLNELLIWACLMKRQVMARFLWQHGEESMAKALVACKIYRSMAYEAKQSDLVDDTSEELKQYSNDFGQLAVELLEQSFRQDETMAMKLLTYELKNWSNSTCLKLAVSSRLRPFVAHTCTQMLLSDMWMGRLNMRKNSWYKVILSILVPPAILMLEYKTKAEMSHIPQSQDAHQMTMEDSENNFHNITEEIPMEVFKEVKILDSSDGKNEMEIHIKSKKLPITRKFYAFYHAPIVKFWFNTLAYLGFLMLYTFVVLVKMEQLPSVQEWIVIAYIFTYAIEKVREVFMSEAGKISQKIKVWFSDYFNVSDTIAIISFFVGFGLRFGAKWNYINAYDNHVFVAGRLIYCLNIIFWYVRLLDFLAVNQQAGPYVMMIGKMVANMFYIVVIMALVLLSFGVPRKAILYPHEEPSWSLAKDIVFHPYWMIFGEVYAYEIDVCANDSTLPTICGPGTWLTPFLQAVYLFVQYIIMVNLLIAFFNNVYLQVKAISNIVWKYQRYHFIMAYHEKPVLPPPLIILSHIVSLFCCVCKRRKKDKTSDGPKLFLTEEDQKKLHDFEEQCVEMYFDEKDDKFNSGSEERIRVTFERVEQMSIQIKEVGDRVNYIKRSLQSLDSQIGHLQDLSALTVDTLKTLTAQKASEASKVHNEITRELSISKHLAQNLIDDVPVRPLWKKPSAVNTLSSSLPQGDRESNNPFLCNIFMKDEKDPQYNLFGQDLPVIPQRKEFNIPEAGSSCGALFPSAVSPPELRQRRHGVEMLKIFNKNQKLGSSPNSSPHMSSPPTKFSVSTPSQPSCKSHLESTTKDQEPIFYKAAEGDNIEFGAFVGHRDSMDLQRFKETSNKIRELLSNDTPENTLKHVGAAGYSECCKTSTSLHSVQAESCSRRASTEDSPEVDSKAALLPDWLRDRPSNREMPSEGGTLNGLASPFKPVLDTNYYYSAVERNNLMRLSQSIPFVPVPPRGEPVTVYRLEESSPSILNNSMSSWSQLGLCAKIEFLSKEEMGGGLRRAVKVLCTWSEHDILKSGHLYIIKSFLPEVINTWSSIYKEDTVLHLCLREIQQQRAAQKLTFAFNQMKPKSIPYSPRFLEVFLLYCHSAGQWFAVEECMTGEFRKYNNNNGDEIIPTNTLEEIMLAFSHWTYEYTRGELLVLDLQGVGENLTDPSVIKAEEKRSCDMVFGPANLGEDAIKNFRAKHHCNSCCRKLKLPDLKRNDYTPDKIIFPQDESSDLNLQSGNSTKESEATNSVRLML

`Oc1ccc2c3c1O[C@H]1c4oc5ccccc5c4C[C@@]4(O)[C@@H](C2)N(CC2CC2)CC[C@]314` [NAL, naltriben]: the EC50 was around 45 µM.

(Values after PMC7202080 (Cell calcium, 2020).)
